Test results published in patent publication US20250276957A1, “CRYSTALLINE FORMS OF AN IL-17 INHIBITOR” (Novartis AG, priority 2022, published 2025).

Tests used:
Human IL-17A x IL-17RA = biological target: T1, Human IL-17A x IL-17RA (Homo sapiens, UniProt Q16552); settings: biotinylated human IL-17A 5 nM, AF647-labeled human IL-17RA 30 nM; read-out: IL17AA FRET/IL17Rawt IC50; cited from earlier work
T1 sequence (Q16552 24-155): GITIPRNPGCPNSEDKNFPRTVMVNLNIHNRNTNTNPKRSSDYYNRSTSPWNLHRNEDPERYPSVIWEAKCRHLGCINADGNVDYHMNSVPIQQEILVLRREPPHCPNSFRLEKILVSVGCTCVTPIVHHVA

[1] = Dynamic vapor sorption (DVS) and stability at ambient temperature and humidity; format: physicochemical; settings: water loss occurs quickly during handling
From the text: Due to the unstable nature of hydrate HA at ambient temperature and humidity, water loss occurs quickly during handling of the samples and the high water content observed by DVS analysis was not seen in DSC or TGA analysis. This water loss behavior is considered to explain the different DSC and TGA results for the two hydrate HA samples.

SMILES	IC50 (Human IL-17A x IL-17RA) [nM]	stability at ambient temperature and humidity [1]
Cc1cc[n+]([O-])c(C)c1-c1ccc(NC(=O)[C@@H](NC(=O)c2ccnn2C)[C@H]2CCCc3ccccc32)cc1 [2,4-dimethyl-3-(4-((S)-2-(1-methyl-1H-pyrazole-5-carboxamido)-2-((S)-1,2,3,4-tetrahydronaphthalen-1-yl)acetamido)phenyl)pyridine 1-oxide]	8	
Cc1cc[n+]([O-])c(C)c1-c1ccc(NC(=O)[C@@H](NC(=O)c2ccnn2C)[C@H]2CCCc3ccccc32)cc1 [hydrate HA, 2,4-dimethyl-3-(4-((S)-2-(1-methyl-1H-pyrazole-5-carboxamido)-2-((S)-1,2,3,4-tetrahydronaphthalen-1-yl)acetamido)phenyl)pyridine 1-oxide]		unstable
